This note sets out measurements from patent US9345655B2, “Oral care compositions” (BRIGHAM YOUNG UNIVERSITY, priority 2011, dated 2016).

One experiment relates to IL-6. Briefly: Anti-inflammatory activity, cytokine generation in HKPG-stimulated U937 macrophages. Type of experiment: cell-based, Human. The conditions noted are these: 0.1 ppm; U937 macrophages stimulated with heat killed P. gingivalis. An excerpt: (§1) The anti-inflammatory activity of a compound of Formula (II) is studied against six human inflammatory cytokines, PGE2, IL-1B, IL-6, IL-8, TNF-a, and GM-CSF in separate sets of experiments; first against PGE2, then against the five other cytokines Human monocyte U937 cells are differentiated to macrophages and then generation of cytokines is induced by stimulating the cells using heat killed P. gingivalis (HKPG, 1×10^8 cells). Different types of inflammatory cytokines are generated by U973 cells and released into the supernatant.

For the next experiment, the system named is IL-1B. Described as above. Type of experiment: cell-based, Human. Particulars: 0.1 ppm; U937 macrophages stimulated with heat killed P. gingivalis.
Text: as §1

A further experiment relates to TNF-a. The description is as above. The class given is cell-based, Human. Particulars: 0.1 ppm; U937 macrophages stimulated with heat killed P. gingivalis.
Text: as §1

The next experiment has as its system bacterial culture. Briefly: Minimum inhibitory concentration (MIC), serial 2-fold dilution in 96-well plate. The class given is cell-based. Particulars: overnight incubation in TSB, inoculum 0.2 OD.

Description for bacterial culture: To evaluate minimum inhibitory concentrations (MICs), the concentration of the twenty four hour culture in log phase is adjusted by diluting in tryptic soy broth (TSB) so that an optical density of 0.2 at 610nm is obtained. The bacterial culture is then ready to be used for testing.
Three solutions are prepared: (1) 1% CPC solution in ethanol; (2) 1% solution of the Compound of Formula (II) in water; and (3) 0.5% of a Compound of Formula (II) +0.5% CPC. The solutions are diluted 1:9 in TSB. They are added to a 96-well plate and a serial dilution (2-fold) is made across the plate. The bacterial inoculum at 0.2 OD, 1000, is added to every well. The plate is incubated overnight and read on a plate reader the following day.

One may read the MIC as the lowest concentration that inhibits growth of the organism. Higher therefore signals a less susceptible organism. For the molecule `CCCCCCCCNCCC[C@@H](C)[C@H]1CC[C@H]2C3[C@H](OCCCN)CC4C[C@H](OCCCN)CC[C@]4(C)[C@H]3C[C@H](OCCCN)[C@]12C` (stereo partly shown) [Compound of Formula (II)], the “reduction of IL-6” value in the experiment on IL-6 is given as 60%. The “reduction of IL-10 (so in the source)” value with IL-1B is listed as 21%. Besides, the “reduction of TNF-a” value in the experiment on TNF-a is 80%. The molecule also gave an MIC in the experiment with bacterial culture of 0.49 µg/mL.
